molecular target: T1, α1G T-type Ca2+ channels (Homo sapiens, UniProt O43497); experiment: Screening of activity against T-type calcium channel with FDSS6000 (fluorescence, KCl-induced [Ca2+]i increase); format: cell-based; details: 10 μM; HEK293 cells expressing α1G and Kir2.1; NA: Not Active; read-out: Inhibitory effect (%) of T-type calcium channel, Inhibition (%)
T1 construct: expressed in transfected cells; host or cells: HEK293 cells stably expressing α1G and Kir2.1
Procedure: Meanwhile, the antagonistic activity of the novel compound of Formula (1) herein against T-type calcium channel was tested as described below. The synthesized compounds were tested for the activity against T-type calcium channel with FDSS6000. Compounds with good activity were selected and IC50 values were exactly obtained by using electrophysiological whole cell patch clamp method. HEK293 cells which stably express both α1G and Kir2.1 subunits were grown in Dulbecco's modified Eagle's medium supplemented with 10% (v/v) fetal bovine serum, penicillin (100 U/mL), streptomycin (100 μg/mL), geneticin (500 μg/mL), and +puromycin (I μg/mL) at 37° C. in a humid atmosphere of 5% CO2 and 95% air. Cells were seeded into 96-well black wall clear bottom plates at a density of 4×10^4 cells/well and were used the next day for high-throughput screening (HTS) FDSS6000 assay. For FDSS6000 assay, cells were incubated for 60 min at room temperature with 5 μM fluo3/AM and 0.001% Pluronic F-127 in a HEPES-buffered solution composed of (in mM): 115 NaCl, 5.4 KCl, 0.8 MgCl2, 1.8 CaCl2, 20 HEPES, 13.8 glucose (pH 7.4). During the fluorescence-based FDSS6000 assay, cells in HEPES-buffered solution containing 10 mM CaCl2 were pretreated with a certain concentration of test compounds and then treated with high concentration of KCl ([…]). α1G T-type Ca^2+ channels were activated by using high concentration of KCl (70 mM) and the increase in [Ca^2+]i by KCl-induced depolarization was detected. During the whole procedure, cells were washed using the BIO-TEK 96-well washer. All data were collected and analyzed using FDSS6000 and related software (Hamamatsu, Japan). The IC50 results of examining the inhibitory effects of the compounds herein selected with FDSS6000 on the calcium influx through the T-type calcium channel are provided in TABLEs 1 and 2.

T1 sequence (O43497 whole entry): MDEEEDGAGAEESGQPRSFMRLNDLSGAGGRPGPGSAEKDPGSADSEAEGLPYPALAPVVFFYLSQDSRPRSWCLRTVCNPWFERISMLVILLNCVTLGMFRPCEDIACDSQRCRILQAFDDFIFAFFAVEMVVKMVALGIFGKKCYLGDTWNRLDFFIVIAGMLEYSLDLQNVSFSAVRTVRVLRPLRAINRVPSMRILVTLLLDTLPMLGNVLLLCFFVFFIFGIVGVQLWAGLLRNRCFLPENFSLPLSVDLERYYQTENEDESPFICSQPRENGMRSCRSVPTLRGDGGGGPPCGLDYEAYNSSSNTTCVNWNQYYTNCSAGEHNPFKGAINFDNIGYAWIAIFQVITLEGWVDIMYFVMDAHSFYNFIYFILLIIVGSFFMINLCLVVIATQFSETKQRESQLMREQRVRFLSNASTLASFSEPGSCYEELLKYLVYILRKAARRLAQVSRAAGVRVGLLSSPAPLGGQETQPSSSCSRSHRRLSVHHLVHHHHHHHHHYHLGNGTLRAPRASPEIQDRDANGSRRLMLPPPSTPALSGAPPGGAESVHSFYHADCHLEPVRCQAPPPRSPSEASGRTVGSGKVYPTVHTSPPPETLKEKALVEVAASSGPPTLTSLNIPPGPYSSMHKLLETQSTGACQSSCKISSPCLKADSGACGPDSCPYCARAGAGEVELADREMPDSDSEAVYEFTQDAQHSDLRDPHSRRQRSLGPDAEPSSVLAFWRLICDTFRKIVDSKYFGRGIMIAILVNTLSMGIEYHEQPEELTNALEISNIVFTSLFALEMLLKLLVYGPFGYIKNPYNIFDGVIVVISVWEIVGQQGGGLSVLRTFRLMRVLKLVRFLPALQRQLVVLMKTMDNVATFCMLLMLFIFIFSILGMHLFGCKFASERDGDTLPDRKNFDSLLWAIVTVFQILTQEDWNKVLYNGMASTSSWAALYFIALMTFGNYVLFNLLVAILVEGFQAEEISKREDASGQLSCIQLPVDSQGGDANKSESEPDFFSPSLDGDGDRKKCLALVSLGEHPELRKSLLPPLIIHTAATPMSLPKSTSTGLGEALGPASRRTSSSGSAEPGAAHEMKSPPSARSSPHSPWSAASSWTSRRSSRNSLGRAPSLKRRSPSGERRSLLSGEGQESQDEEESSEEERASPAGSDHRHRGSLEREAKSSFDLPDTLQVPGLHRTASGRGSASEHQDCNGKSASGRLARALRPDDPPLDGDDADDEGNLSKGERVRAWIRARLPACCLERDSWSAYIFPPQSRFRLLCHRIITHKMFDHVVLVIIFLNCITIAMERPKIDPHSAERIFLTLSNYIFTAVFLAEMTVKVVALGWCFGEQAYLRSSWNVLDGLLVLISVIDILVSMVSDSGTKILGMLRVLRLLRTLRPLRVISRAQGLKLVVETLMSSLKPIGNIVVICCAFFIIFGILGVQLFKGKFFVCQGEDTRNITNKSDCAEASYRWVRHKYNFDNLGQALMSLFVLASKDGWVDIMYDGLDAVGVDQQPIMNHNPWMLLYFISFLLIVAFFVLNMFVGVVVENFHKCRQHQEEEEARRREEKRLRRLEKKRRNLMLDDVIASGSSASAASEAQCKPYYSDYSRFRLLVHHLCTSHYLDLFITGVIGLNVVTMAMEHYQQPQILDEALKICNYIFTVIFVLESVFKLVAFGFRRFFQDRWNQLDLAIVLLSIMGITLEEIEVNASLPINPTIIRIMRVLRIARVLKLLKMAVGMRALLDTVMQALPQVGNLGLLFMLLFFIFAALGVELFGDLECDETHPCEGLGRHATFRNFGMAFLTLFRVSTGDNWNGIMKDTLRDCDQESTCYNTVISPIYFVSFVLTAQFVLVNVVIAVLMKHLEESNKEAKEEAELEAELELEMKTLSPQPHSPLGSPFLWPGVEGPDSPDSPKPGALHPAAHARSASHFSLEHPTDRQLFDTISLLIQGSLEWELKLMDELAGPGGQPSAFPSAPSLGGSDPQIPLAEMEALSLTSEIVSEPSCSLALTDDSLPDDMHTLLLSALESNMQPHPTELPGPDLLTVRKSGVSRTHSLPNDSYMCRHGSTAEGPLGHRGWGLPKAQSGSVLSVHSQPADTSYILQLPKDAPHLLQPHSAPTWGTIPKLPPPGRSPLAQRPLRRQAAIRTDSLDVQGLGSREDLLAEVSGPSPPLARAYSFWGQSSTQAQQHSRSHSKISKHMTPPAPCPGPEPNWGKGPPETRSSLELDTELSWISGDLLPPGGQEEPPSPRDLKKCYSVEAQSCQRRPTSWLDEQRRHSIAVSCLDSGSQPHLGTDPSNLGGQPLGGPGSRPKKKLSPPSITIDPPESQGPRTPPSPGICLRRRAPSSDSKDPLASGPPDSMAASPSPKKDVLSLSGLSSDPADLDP

inhibition at 10 µM	SMILES
30.9%	Cc1ccc(CN2C(=O)c3ccc(C(=O)NCCN4CCCCC4)cc3C2=O)cc1 [Compound 105, 1-(2-{[2-(4-methyl-benzyl)-1,3-dioxo-2,3-dihydro-1H-isoindol-5-carbonyl]-amino}-ethyl)-piperidinium chloride]
5.3%	Cc1cccc(N2C(=O)c3ccc(C(=O)NCCCN4CCCC4)cc3C2=O)c1 [Compound 36, 1-{3-[(1,3-dioxo-2-m-tolyl-2,3-dihydro-1H-isoindol-5-carbonyl)-amino]-propyl}-pyrrolidinium chloride]
11.7%	Cc1ccc(N2C(=O)c3ccc(C(=O)NCCCN4CCCCC4C)cc3C2=O)cc1 (centres unmarked) [Compound 40, 1-{3-[(1,3-dioxo-2-p-tolyl-2,3-dihydro-1H-isoindol-5-carbonyl)-amino]-propyl}-2-methyl-piperidinium chloride]
15.5%	Cc1ccccc1CN1C(=O)c2ccc(C(=O)NCCCN3CCCC3)cc2C1=O [Compound 96, 1-(3-{[2-(2-methyl-benzyl)-1,3-dioxo-2,3-dihydro-1H-isoindol-5-carbonyl]-amino}-propyl)-pyrrolidinium chloride]
24.8%	Cc1cccc(CN2C(=O)c3ccc(C(=O)NCCCN4CCCC4)cc3C2=O)c1 [Compound 102, 1-(3-{[2-(3-methyl-benzyl)-1,3-dioxo-2,3-dihydro-1H-isoindol-5-carbonyl]-amino}-propyl)-pyrrolidinium chloride]
35%	O=C(NCCCN1CCCC1)c1ccc2c(c1)C(=O)N(Cc1ccc(Cl)cc1)C2=O [Compound 90, 1-(3-{[2-(4-chloro-benzyl)-1,3-dioxo-2,3-dihydro-1H-isoindol-5-carbonyl]-amino}-propyl)-pyrrolidinium chloride]
2.2%	CN1CCN(CCCNC(=O)c2ccc3c(c2)C(=O)N(Cc2cccc(F)c2)C3=O)CC1 [Compound 67, 1-(3-{[2-(3-fluoro-benzyl)-1,3-dioxo-2,3-dihydro-1H-isoindol-5-carbonyl]-amino}-propyl)-4-methyl-1-piperazinium chloride]
23.5%	O=C(NCCCN1CCOCC1)c1ccc2c(c1)C(=O)N(Cc1ccccc1Cl)C2=O [Compound 80, 4-(3-{[2-(2-chloro-benzyl)-1,3-dioxo-2,3-dihydro-1H-isoindol-5-carbonyl]-amino}-propyl)-4-morpholinium chloride]
40.1%	Cc1ccc(CN2C(=O)c3ccc(C(=O)NCCCN4CCCCC4)cc3C2=O)cc1 [Compound 106, 1-(3-{[2-(4-methyl-benzyl)-1,3-dioxo-2,3-dihydro-1H-isoindol-5-carbonyl]-amino}-propyl)-piperidinium chloride]
12.2%	Cc1ccc(CN2C(=O)c3ccc(C(=O)NCCN4CCOCC4)cc3C2=O)cc1 [Compound 109, 4-(2-{[2-(4-methyl-benzyl)-1,3-dioxo-2,3-dihydro-1H-isoindol-5-carbonyl]-amino}-ethyl)-4-morpholinium chloride]
21.5%	O=C(NCCN1CCCC1)c1ccc2c(c1)C(=O)N(Cc1ccccc1Cl)C2=O [Compound 77, 1-(2-{[2-(2-chloro-benzyl)-1,3-dioxo-2,3-dihydro-1H-isoindol-5-carbonyl]-amino}-ethyl)-pyrrolidinium chloride]
42.9%	O=C(NCCN1CCCCC1)c1ccc2c(c1)C(=O)N(Cc1cccc(Cl)c1)C2=O [Compound 81, 1-(2-{[2-(3-chloro-benzyl)-1,3-dioxo-2,3-dihydro-1H-isoindol-5-carbonyl]-amino}-ethyl)-piperidinium chloride]

same assay, conditions: 100 μM; HEK293 cells expressing α1G and Kir2.1; read-out: Inhibitory effect (%) of T-type calcium channel, Inhibition (%)

inhibition at 100 µM	SMILES
69.8%	Cc1ccccc1CN1C(=O)c2ccc(C(=O)NCCN3CCOCC3)cc2C1=O [Compound 97, 4-(2-{[2-(2-methyl-benzyl)-1,3-dioxo-2,3-dihydro-1H-isoindol-5-carbonyl]-amino}-ethyl)-4-morpholinium chloride]
60.8%	O=C(NCCCN1CCOCC1)c1ccc2c(c1)C(=O)N(Cc1ccccc1F)C2=O [Compound 60, 4-(3-{[2-(2-fluoro-benzyl)-1,3-dioxo-2,3-dihydro-1H-isoindol-5-carbonyl]-amino}-propyl)-4-morpholinium chloride]
22.3%	Cc1ccccc1N1C(=O)c2ccc(C(=O)NCCN3CCOCC3)cc2C1=O [Compound 32, 4-{2-[(1,3-dioxo-2-o-tolyl-2,3-dihydro-1H-isoindol-5-carbonyl)-amino]-ethyl}-4-morpholinium chloride]
59.8%	O=C(NCCN1CCOCC1)c1ccc2c(c1)C(=O)N(Cc1cccc(F)c1)C2=O [Compound 65, 4-(2-{[2-(3-fluoro-benzyl)-1,3-dioxo-2,3-dihydro-1H-isoindol-5-carbonyl]-amino}-ethyl)-4-morpholinium chloride]
39.7%	O=C(NCCN1CCCC1)c1ccc2c(c1)C(=O)N(c1ccccc1F)C2=O [Compound 9, 1-(2-{[2-(2-fluoro-phenyl)-1,3-dioxo-2,3-dihydro-1H-isoindol-5-carbonyl]-amino}-ethyl)-pyrrolidinium chloride]
28.1%	O=C(NCCN1CCCCC1)c1ccc2c(c1)C(=O)N(c1ccccc1)C2=O [Compound 1, 1-{2-[(1,3-dioxo-2-phenyl-2,3-dihydro-1H-isoindol-5-carbonyl)-amino]-ethyl}-piperidinium chloride]
45.8%	O=C(NCCCN1CCCC1)c1ccc2c(c1)C(=O)N(Cc1ccccc1)C2=O [Compound 52, 1-{3-[(2-benzyl-1,3-dioxo-2,3-dihydro-1H-isoindol-5-carbonyl)-amino]-propyl}-pyrrolidinium chloride]
22.7%	O=C(NCCCN1CCOCC1)c1ccc2c(c1)C(=O)N(c1cccc(F)c1)C2=O [Compound 18, 4-(3-{[2-(3-fluoro-phenyl)-1,3-dioxo-2,3-dihydro-1H-isoindol-5-carbonyl]-amino}-propyl)-4-morpholinium chloride]
59.8%	O=C(NCCCN1CCOCC1)c1ccc2c(c1)C(=O)N(Cc1cccc(F)c1)C2=O [Compound 66, 4-(3-{[2-(3-fluoro-benzyl)-1,3-dioxo-2,3-dihydro-1H-isoindol-5-carbonyl]-amino}-propyl)-4-morpholinium chloride]
22.3%	O=C(NCCCN1CCOCC1)c1ccc2c(c1)C(=O)N(c1ccccc1)C2=O [Compound 6, 4-{3-[(1,3-dioxo-2-phenyl-2,3-dihydro-1H-isoindol-5-carbonyl)-amino]-propyl}-4-morpholinium chloride]
77.7%	COc1ccc(CN2C(=O)c3ccc(C(=O)NCCCN4CCCCC4C)cc3C2=O)cc1 (centres unmarked) [Compound 124, 1-(3-{[2-(4-methoxy-benzyl)-1,3-dioxo-2,3-dihydro-1H-isoindol-5-carbonyl]-amino}-propyl)-2-methyl-piperidinium chloride]
71.1%	COc1cccc(CN2C(=O)c3ccc(C(=O)NCCCN4CCCCC4C)cc3C2=O)c1 (centres unmarked) [Compound 118, 1-(3-{[2-(3-methoxy-benzyl)-1,3-dioxo-2,3-dihydro-1H-isoindol-5-carbonyl]-amino}-propyl)-2-methyl-piperidinium chloride]
73.4%	O=C(NCCN1CCCC1)c1ccc2c(c1)C(=O)N(Cc1cccc(F)c1)C2=O [Compound 63, 1-(2-{[2-(3-fluoro-benzyl)-1,3-dioxo-2,3-dihydro-1H-isoindol-5-carbonyl]-amino}-ethyl)-pyrrolidinium chloride]
31.4%	COc1cccc(N2C(=O)c3ccc(C(=O)NCCN4CCCCC4)cc3C2=O)c1 [Compound 46, 1-(2-{[2-(3-methoxy-phenyl)-1,3-dioxo-2,3-dihydro-1H-isoindol-5-carbonyl]-amino}-ethyl)-piperidinium chloride]
69.6%	CC1CCCCN1CCCNC(=O)c1ccc2c(c1)C(=O)N(Cc1ccccc1)C2=O (centres unmarked) [Compound 50, 1-{3-[(2-benzyl-1,3-dioxo-2,3-dihydro-1H-isoindol-5-carbonyl)-amino]-propyl}-2-methyl-piperidinium chloride]
67.5%	O=C(NCCN1CCCC1)c1ccc2c(c1)C(=O)N(Cc1ccc(F)cc1)C2=O [Compound 70, 1-(2-{[2-(4-fluoro-benzyl)-1,3-dioxo-2,3-dihydro-1H-isoindol-5-carbonyl]-amino}-ethyl)-pyrrolidinium chloride]
21.1%	O=C(NCCCN1CCOCC1)c1ccc2c(c1)C(=O)N(c1ccccc1F)C2=O [Compound 12, 4-(3-{[2-(2-fluoro-phenyl)-1,3-dioxo-2,3-dihydro-1H-isoindol-5-carbonyl]-amino}-propyl)-4-morpholinium chloride]
